Data set [1] has as its system S. aureus. Nature of the data set: Rapid antimicrobial activity: test gel/base mixed with culture and bovine adult serum, 15 seconds, colony count. Type of data set: cell-based, Staphylococcus aureus. Particulars: for Growth (CFU/ml) / S. aureus (cfu/tube): control 1 × 10^8; for Growth (cfu/tube): Table 7, control (without gel base) 2.5-4.2 × 10^8; for antimicrobial activity against S. aureus (in words): Tables 1 and 2.
Description: Antimicrobial activity was evaluated using the following assay. 1 milliliter of 10^8 colony-forming units (“cfus”) of test organism per milliliter was added to 1 milliliter of bovine adult serum in a sterile culture tube and mixed. 1 milliliter of the test gel was added to each tube, and was vortexed to mix. After 15 seconds, three 0.5 ml aliquots were removed and further diluted 1:1000 with LTSB (lecithin-containing trypticase soy broth) drug-inactivating medium, and, of the resulting liquid, 0.5 milliliters were plated on each trypticase soy agar (“TSA”) plate. The resulting plates were incubated at 37° C. for 24 hours and the colony count per tube was determined.

The conditions of data set [2]: at 22° C.; cited from earlier work.
Setting [3] is: Table 5, alcohol gel base, 15 seconds.
Where [4] appears, read: Table 3, alcohol gel base, 15 seconds.
The mark [5] stands for this setting: Table 10, aqueous base of Example 8, 15 seconds, aqueous base control 5.0 × 10^8.
[6] abbreviates: Table 1, alcohol gel base of Example 1, 15 seconds, bovine adult serum.
Setting [7] is: Table 1, alcohol gel base, 15 seconds.
[8] abbreviates: Table 2, alcohol gel base, 15 seconds.

Data on 19 compounds can be found in US8293802B2, “Gentle-acting skin-disinfectants and hydroalcoholic gel formulations” (The Trustees of Columbia University, priority 2001, dated 2012).

Where two headings read alike, the source gives them in different places.

On to `Oc1cc(Cl)ccc1Oc1ccc(Cl)cc1Cl` [0.3% TC, triclosan], for which, in data set [1] (setting [3]), the “fold reduction relative to control” value was 0 fold and the “Growth (CFU/ml)” value is listed as 1.0 × 10^8 CFU/ml.
For `N=C(NCCCCCCNC(=N)NC(=N)Nc1ccc(Cl)cc1)NC(=N)Nc1ccc(Cl)cc1.O=C(O)[C@H](O)[C@@H](O)[C@H](O)[C@H](O)CO.O=C(O)[C@H](O)[C@@H](O)[C@H](O)[C@H](O)CO` [0.05% CHG, chlorhexidine digluconate], in data set [1] (setting [4]), the “Log 10 cfu reduction relative to control” value stood at 1.0 log 10, the “fold reduction relative to control” value is 9 fold and the “S. aureus (cfu/tube)” value is given as 1.1 × 10^7 cfu/tube. Also, in data set [1] (setting [3]), the “fold reduction relative to control” value is on record as 9 fold and the “Growth (CFU/ml)” value is recorded as 1.1 × 10^7 CFU/ml. The “Growth (cfu/tube)” value in data set [1] (alcohol gel base, 15 seconds) is listed as 1.1 × 10^7 cfu/tube. The “Staphylococcus aureus (CFU/tube)” value in data set [1] (setting [5]) is on record as 2.5 × 10^8 CFU/tube.
With `N=C(NCCCCCCNC(=N)NC(=N)Nc1ccc(Cl)cc1)NC(=N)Nc1ccc(Cl)cc1.O=C(O)[C@H](O)[C@@H](O)[C@H](O)[C@H](O)CO.O=C(O)[C@H](O)[C@@H](O)[C@H](O)[C@H](O)CO` [0.5% CHG, chlorhexidine digluconate], in data set [1] (setting [4]), the “Log 10 cfu reduction relative to control” value is reported as 1.4 log 10, the “fold reduction relative to control” value was 23.8 fold and the “S. aureus (cfu/tube)” value is given as 4.2 × 10^6 cfu/tube.
In the case of `CCCCC(CC)COCC(O)CO` (stereo not drawn) [0.5% Sensiva, glycerol 1-(2-ethylhexyl)ether], the “S. aureus (cfu/tube)” value in data set [1] (setting [6]) is listed as 1 × 10^7 cfu/tube. The “fold-reduction relative to control” value in data set [1] (setting [7]) is recorded as 2.5 fold. Moreover, the “Growth (cfu/tube)” value in data set [1] (alcohol gel base, 15 seconds) is listed as 4.0 × 10^7 cfu/tube.
For `CC(C)(C)CC(C)(C)c1ccc(OCCOCC[N+](C)(C)Cc2ccccc2)cc1` [0.12% BZT, benzethonium chloride], in data set [1] (setting [3]), the “fold reduction relative to control” value worked out at 10 fold and the “Growth (CFU/ml)” value was 1.0 × 10^7 CFU/ml.
On to `N=C(NCCCCCCNC(=N)NC(=N)Nc1ccc(Cl)cc1)NC(=N)Nc1ccc(Cl)cc1.O=C(O)[C@H](O)[C@@H](O)[C@H](O)[C@H](O)CO.O=C(O)[C@H](O)[C@@H](O)[C@H](O)[C@H](O)CO` [0.25% CHG, chlorhexidine digluconate], for which, in data set [1] (setting [4]), the “Log 10 cfu reduction relative to control” value is given as 1.1 log 10, the “fold reduction relative to control” value is 12.5 fold and the “S. aureus (cfu/tube)” value was 8 × 10^6 cfu/tube.
For `Clc1ccc(COC(Cn2ccnc2)c2ccc(Cl)cc2Cl)c(Cl)c1` (stereo not drawn) [1.0% Miconazole, miconazole], in data set [1] (setting [3]), the “fold reduction relative to control” value is 0 fold and the “Growth (CFU/ml)” value is recorded as 1.0 × 10^8 CFU/ml.
As to `CCCCC(CC)COCC(O)CO` (stereo not drawn) [1.0% Sensiva, glycerol 1-(2-ethylhexyl)ether], the “S. aureus (cfu/tube)” value in data set [1] (setting [6]) was 4 × 10^7 cfu/tube. In addition, in data set [1] (setting [7]), the “fold-reduction relative to control” value is on record as 9 fold. For the same compound, in data set [1] (setting [8]), the “Log 10 cfu reduction relative to control” value is listed as 1 log 10, the “fold reduction relative to control” value is on record as 10 fold and the “S. aureus (cfu/tube)” value is 4 × 10^7 cfu/tube. Besides, in data set [1] (alcohol gel base, 15 seconds), the “Growth (cfu/tube)” value is recorded as 1.0 × 10^7 cfu/tube. Also, the “Staphylococcus aureus (CFU/tube)” value in data set [1] (setting [5]) is listed as 5.0 × 10^8 CFU/tube.
For the compound `CCCCC(CC)COCC(O)CO` (stereo not drawn) [2.0% Sensiva, glycerol 1-(2-ethylhexyl)ether], the “S. aureus (cfu/tube)” value in data set [1] (setting [6]) is listed as 3 × 10^6 cfu/tube. Moreover, the “fold-reduction relative to control” value in data set [1] (setting [7]) is given as 33 fold. For the same compound, in data set [1] (setting [8]), the “Log 10 cfu reduction relative to control” value is on record as 1.5 log 10, the “fold reduction relative to control” value is 33 fold and the “S. aureus (cfu/tube)” value is given as 3 × 10^6 cfu/tube. In data set [1] (setting [3]), the “fold reduction relative to control” value is listed as 33 fold and the “Growth (CFU/ml)” value is recorded as 3 × 10^6 CFU/ml. Further, the “Fold Reduction Compared to Control” value in data set [1] (Table 6, alcohol gel base, 15 seconds) was found to be 33 fold. Further, the “Growth (CFU/ML)” value in data set [1] (Table 6, alcohol gel base, 15 seconds, control 1.0 × 10^8) is on record as 3.0 × 10^6 CFU/ML.
On to `CCCCC(CC)COCC(O)CO` (stereo not drawn) [3.0% Sensiva, glycerol 1-(2-ethylhexyl)ether], for which the “S. aureus (cfu/tube)” value in data set [1] (setting [6]) is on record as 1 × 10^6 cfu/tube. Moreover, in data set [1] (setting [7]), the “fold-reduction relative to control” value is given as 100 fold.
Consider `CCCCC(CC)COCC(O)CO` (stereo not drawn) [5.0% Sensiva, glycerol 1-(2-ethylhexyl)ether], for which the “S. aureus (cfu/tube)” value in data set [1] (setting [6]) is reported as 1 × 10^6 cfu/tube. Further, the “fold-reduction relative to control” value in data set [1] (setting [7]) came to 100 fold.
For the compound `CCCCC(CC)COCC(O)CO` (stereo not drawn) [Sensiva SC 50, glycerol 1-(2-ethylhexyl)ether], the water solubility entry in data set [2] is “approximately 1.8 g/l”.
Turning to benzalkonium chloride [0.5% BZK], in data set [1] (setting [8]), the “Log 10 cfu reduction relative to control” value is on record as 1.4 log 10, the “fold reduction relative to control” value was determined as 27 fold and the “S. aureus (cfu/tube)” value was 3.7 × 10^6 cfu/tube.
For benzalkonium chloride [0.12% BZK], in data set [1] (setting [8]), the “Log 10 cfu reduction relative to control” value is reported as 0.8 log 10, the “fold reduction relative to control” value was found to be 6.25 fold and the “S. aureus (cfu/tube)” value is 1.6 × 10^7 cfu/tube. Besides, in data set [1] (setting [3]), the “fold reduction relative to control” value amounted to 6.25 fold and the “Growth (CFU/ml)” value is reported as 1.6 × 10^7 CFU/ml. The “Growth (cfu/tube)” value in data set [1] (alcohol gel base, 15 seconds) is 1.6 × 10^7 cfu/tube. Moreover, in data set [1] (setting [5]), the “Staphylococcus aureus (CFU/tube)” value is on record as 2.0 × 10^8 CFU/tube. Also, the “antimicrobial activity against S. aureus (in words)” value in data set [1] (alcohol gel base) is “minimal or no antimicrobial activity”.
For the compound benzalkonium chloride [0.019% BZK], the “Growth (cfu/tube)” value in data set [1] (alcohol gel base, 15 seconds) was 8.0 × 10^7 cfu/tube.
For benzalkonium chloride [0.19% BZK], in data set [1] (setting [8]), the “Log 10 cfu reduction relative to control” value was found to be 0.7 log 10, the “fold reduction relative to control” value is 5 fold and the “S. aureus (cfu/tube)” value was 2 × 10^7 cfu/tube. For the same compound, the “antimicrobial activity against S. aureus (in words)” value in data set [1] (alcohol gel base) is “minimal or no antimicrobial activity”.
On to neomycin [0.3% Neomycin], for which, in data set [1] (setting [3]), the “fold reduction relative to control” value came to 4.3 fold and the “Growth (CFU/ml)” value was 2.3 × 10^7 CFU/ml.
For polyhexamethylene biguanide [0.3% PHMB], the “Staphylococcus aureus (CFU/tube)” value in data set [1] was 1.0 × 10^7 CFU/tube. Besides, in data set [1] (setting [3]), the “fold reduction relative to control” value is reported as 33 fold and the “Growth (CFU/ml)” value was 3.0 × 10^6 CFU/ml.
povidone iodine [1.0% PVI]: in data set [1] (setting [3]), the “fold reduction relative to control” value is 5 fold and the “Growth (CFU/ml)” value was 2.0 × 10^7 CFU/ml.
